Structures can show the parent of a compound that is named as a salt.

For 34 molecules, Ranking score and B-score functional assay results are on record in publication PMC5681660, “Reduced hepatitis B and D viral entry using clinically applied drugs as novel inhibitors of the bile acid transporter NTCP” (Scientific Reports, 2017).

The target of this assay is T1, human NTCP (Homo sapiens, UniProt Q14973).
T1 sequence (Q14973 1-349): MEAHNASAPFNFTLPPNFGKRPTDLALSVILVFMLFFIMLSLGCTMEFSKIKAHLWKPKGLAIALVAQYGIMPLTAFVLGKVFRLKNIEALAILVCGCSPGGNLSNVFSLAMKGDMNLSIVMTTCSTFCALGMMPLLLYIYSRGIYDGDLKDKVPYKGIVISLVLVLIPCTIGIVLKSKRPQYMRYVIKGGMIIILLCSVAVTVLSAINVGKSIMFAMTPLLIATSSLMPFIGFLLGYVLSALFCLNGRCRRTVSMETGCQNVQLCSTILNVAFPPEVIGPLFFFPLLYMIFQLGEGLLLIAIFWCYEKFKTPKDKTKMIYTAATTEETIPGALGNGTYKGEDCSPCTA
Description: Screening taurocholate uptake assay (96-well, [14C]taurocholate, 10 µM drug). Particulars: for B-score functional assay: 10 µM drug.

Where [1] appears, read: combined ranking of functional and binding screening assays.
The mark [2] stands for this setting: ranking over the functional and the binding screening assay.
[3] abbreviates: screening taurocholate uptake, B-score.

`Cc1ccc(S(=O)(=O)NC(=O)NN2CCCCCC2)cc1` [Tolazamide]: under setting [1], the Ranking score amounted to 601.655. Besides, for the setting “screening taurocholate uptake”, the B-score functional assay is listed as -0.681.

As to `CC(C)N1CCN(c2ccc(OCC3COC(Cn4cncn4)(c4ccc(Cl)cc4Cl)O3)cc2)CC1` (centres unmarked) [Terconazole], the Ranking score under setting [1] was found to be 502.144. The B-score functional assay (screening taurocholate uptake) is on record as -0.057.

Consider `CCC(=O)OCC(=O)[C@@]1(OC(=O)CC)[C@@H](C)C[C@H]2[C@@H]3CCC4=CC(=O)C=C[C@]4(C)[C@@]3(Cl)[C@@H](O)C[C@@]21C` [Beclomethasone dipropionate], for which the Ranking score under setting [2] was 123.665. Also, the B-score functional assay (screening taurocholate uptake) was -3.95.

As to `C=CC1=C(C(=O)O)N2C(=O)[C@@H](NC(=O)/C(=N\O)c3csc(N)n3)[C@H]2SC1` [Cefdinir], the Ranking score under setting [1] came to 598.124. Also, the B-score functional assay (screening taurocholate uptake) is given as -0.454.

Take `CO[C@@]1(NC(=O)CSCC#N)C(=O)N2C(C(=O)O)=C(CSc3nnnn3C)CS[C@@H]21` [Cefmetazole sodium salt]: under setting [2], the Ranking score worked out at 266.713. Also, the B-score functional assay (screening taurocholate uptake) was -1.174.

For the molecule `COc1cc(C)nc(-n2nc(C)cc2OC)n1` [Epirizole], under setting [2], the Ranking score came to 209.705. For the setting “screening taurocholate uptake”, this molecule showed a B-score functional assay of 0.634.

Regarding `Nc1c2c(nc3ccccc13)CCCC2O.O=C(O)/C=C\C(=O)O` (racemic) [Hydroxytacrine maleate (R,S)], under setting [2], the Ranking score came out at 180.3. This molecule returned a B-score functional assay (screening taurocholate uptake) of 2.059.

Regarding `NC(=O)C[S+]([O-])C(c1ccccc1)c1ccccc1` (centres unmarked) [Modafinil], the Ranking score under setting [1] turned out to be 485.699. Moreover, the B-score functional assay (screening taurocholate uptake) is recorded as 2.253.

Turning to `Clc1cc(Cl)c(OCC#CI)cc1Cl` [Haloprogin], under setting [1], the Ranking score is recorded as 1271.5. Also, under setting [3], the B-score functional assay was determined as 4.15.

Under setting [2], `Cc1onc(-c2ccccc2Cl)c1C(=O)N[C@@H]1C(=O)N2[C@@H]1SC(C)(C)[C@@H]2C(=O)[O-].[Na+]` [Cloxacillin sodium salt] registered a Ranking score of 243.228. The molecule further had a B-score functional assay (screening taurocholate uptake) of 0.027.

With `O=C(Nc1ccc([N+](=O)[O-])cc1Cl)c1cc(Cl)ccc1O` [Niclosamide], under setting [2], the Ranking score was found to be 178.326. Besides, the B-score functional assay (screening taurocholate uptake) is -3.546.

Regarding `CC[C@@]1([C@H]2O[C@H]([C@H]3O[C@@](O)(CO)[C@H](C)C[C@@H]3C)C[C@H]2C)CC[C@H]([C@@]2(C)CC[C@]3(C[C@H](O)[C@@H](C)[C@@H]([C@H](C)[C@H](OC)[C@@H](C)C(=O)[O-])O3)O2)O1.[Na+]` [Monensin sodium salt], under setting [2], the Ranking score amounted to 257.93. Also, for the setting “screening taurocholate uptake”, the B-score functional assay is listed as -1.407.

For the molecule `CS(=O)(=O)O.Cc1ccc2c(c1)c1c3n2CCNC3CCC1` (centres unmarked) [Pirlindole mesylate], under setting [1], the Ranking score is reported as 496.839. The same molecule gave a B-score functional assay (screening taurocholate uptake) of 0.129.

`CC(O)(CS(=O)(=O)c1ccc(F)cc1)C(=O)Nc1ccc(C#N)c(C(F)(F)F)c1` (centres unmarked) [Bicalutamide] showed a Ranking score under setting [2] of 258.616. The B-score functional assay (screening taurocholate uptake) is recorded as -0.361.

Regarding `CCC(NC(C)C)C(O)c1ccc(O)c(O)c1.CS(=O)(=O)O` (centres unmarked) [Isoetharine mesylate salt], the Ranking score under setting [1] came to 639.265. In addition, the B-score functional assay (screening taurocholate uptake) is given as -0.384.

Under setting [2], `COc1ccc(-c2cc(=O)c3c(O)cc(O[C@@H]4O[C@H](CO[C@@H]5O[C@@H](C)[C@H](O)[C@@H](O)[C@H]5O)[C@@H](O)[C@H](O)[C@H]4O)cc3o2)cc1O` [Diosmin] came in with a Ranking score of 207.123. Also, for the setting “screening taurocholate uptake”, the B-score functional assay is listed as -1.635.

With `NC(=O)OCC(O)COc1ccc(Cl)cc1` (centres unmarked) [Chlorphensin carbamate], the Ranking score under setting [1] is on record as 1211.24. This molecule showed a B-score functional assay under setting [3] of 3.271.

Regarding `CC(C)NCC(O)COc1ccc(CCOCC2CC2)cc1` (centres unmarked) [Betaxolol hydrochloride], the Ranking score under setting [1] came to 583.493. In addition, the B-score functional assay (screening taurocholate uptake) worked out at 0.038.

Consider `CC(C)(C)NCC(O)COc1cccc2c1CCC(=O)N2` (centres unmarked) [Carteolol hydrochloride], for which the Ranking score under setting [1] is recorded as 570.247. The B-score functional assay (screening taurocholate uptake) is given as -0.486.

Turning to `Cc1c(NC(=O)c2cccnc2)c(=O)n(-c2ccccc2)n1C` [Nifenazone], the Ranking score under setting [1] came out at 560.079. In addition, the B-score functional assay (screening taurocholate uptake) turned out to be 0.488.

`CCN(CC)CCOC(=O)C(Cc1cccc2ccccc12)CC1CCCO1` (centres unmarked) [Nafronyl oxalate]: the Ranking score under setting [1] came out at 488.941. Besides, the B-score functional assay (screening taurocholate uptake) is -1.268.

As for `CNCCCN1c2ccccc2CCc2ccccc21` [Desipramine hydrochloride], the B-score functional assay (Prestwick library screen, taurocholate uptake) turned out to be 0.022. This molecule came in with a Ranking score (ranking score beside the functional and binding assay B-scores of the screen) of 719.8.

Under setting [2], `C#C[C@]1(O)CC[C@H]2[C@@H]3CCc4cc(O)ccc4[C@H]3CC[C@@]21C` [Ethinylestradiol] registered a Ranking score of 213.127. For the same molecule, the B-score functional assay (screening taurocholate uptake) was -1.799.

The molecule `c1ccc2c(CC3=NCCN3)cccc2c1` [Naphazoline hydrochloride] returned a Ranking score under setting [2] of 143.903. Moreover, the B-score functional assay (screening taurocholate uptake) was -2.093.

Consider `COc1cnc(NS(=O)(=O)c2ccc(N)cc2)nc1` [Sulfameter], for which, under setting [1], the Ranking score stood at 466.613. Besides, the B-score functional assay (screening taurocholate uptake) is reported as -1.201.

Under setting [2], `CO[C@H]1/C=C/O[C@@]2(C)Oc3c(C)c(O)c4c(O)c(c(/C=N/N5CCN(C6CCCC6)CC5)c(O)c4c3C2=O)NC(=O)/C(C)=C\C=C\[C@H](C)[C@H](O)[C@@H](C)[C@@H](O)[C@@H](C)[C@H](OC(C)=O)[C@@H]1C` [Rifapentine] yielded a Ranking score of 220.209. For the setting “screening taurocholate uptake”, the B-score functional assay is 0.477.

Regarding `COCCOC(=O)C1=C(C)NC(C)=C(C(=O)OC/C=C/c2ccccc2)C1c1cccc([N+](=O)[O-])c1` (centres unmarked) [Cilnidipine], the Ranking score under setting [1] is listed as 582.255. Besides, where the note is “screening taurocholate uptake”, the B-score functional assay stood at 0.219.

On to `CCC(C)(C)c1ccc(CC(C)CN2C[C@@H](C)O[C@@H](C)C2)cc1` (some centres unmarked) [Amorolfine hydrochloride], for which the Ranking score under setting [1] amounted to 533.183. Under “screening taurocholate uptake”, the B-score functional assay was -0.84.

As for `CCOC(=O)OC(C)OC1=C(C(=O)Nc2ccccn2)N(C)S(=O)(=O)c2ccccc21` (centres unmarked) [Ampiroxicam], under setting [1], the Ranking score was determined as 519.584. For the same molecule, the B-score functional assay (screening taurocholate uptake) turned out to be 0.098.

In the case of `CCCC1O[C@@H]2C[C@H]3[C@@H]4CCC5=CC(=O)C=C[C@]5(C)[C@H]4[C@@H](O)C[C@]3(C)[C@]2(C(=O)CO)O1` (some centres unmarked) [Budesonide], the Ranking score under setting [1] came out at 628.462. For the same molecule, under “screening taurocholate uptake”, the B-score functional assay is on record as -0.64.

Under setting [2], `CCc1nn(CCCN2CCN(c3cccc(Cl)c3)CC2)c(=O)n1CCOc1ccccc1` [Nefazodone HCl] registered a Ranking score of 227.321. Further, for the setting “screening taurocholate uptake”, the B-score functional assay is recorded as -1.389.

For the molecule `CC[C@H](C)C(=O)O[C@H]1C[C@@H](C)C=C2C=C[C@H](C)[C@H](CC[C@@H]3C[C@@H](O)CC(=O)O3)[C@H]21` [Lovastatin], the Ranking score under setting [2] was 175.818. Besides, the B-score functional assay (screening taurocholate uptake) is given as -0.084.

For the molecule `CC(C)n1c(/C=C/C(O)CC(O)CC(=O)O)c(-c2ccc(F)cc2)c2ccccc21` (centres unmarked) [Fluvastatin sodium salt], the Ranking score under setting [2] came out at 89.7998. Further, under “screening taurocholate uptake”, the B-score functional assay is given as -3.098.

For `C#CCN(C)CCCOc1ccc(Cl)cc1Cl` [Clorgyline hydrochloride], the Ranking score under setting [1] was 645.563. This molecule also returned a B-score functional assay (screening taurocholate uptake) of 0.335.
